Measured values reported in publication PMC3933009, “Identification and characterization of a galacturonic acid transporter from Neurospora crassa and its application for Saccharomyces cerevisiae fermentation processes” (Biotechnology for Biofuels, 2014).

How the values were obtained:
Format in all cases: cell-based
[1] = molecular target: T1, quinate permease (NCU06026; quinate-Y) (Neurospora crassa, UniProt P11636); assay: uptake by induced mycelia, WT versus deletion strain, MS detection; conditions: 90 μM quinic acid plus D-GalA, Vogel's salts, 25°C
T1 construct: gene qa-y; native protein in mycelia; wild type compared with deletion strain

[2] = molecular target: T2, D-galacturonate reductase (GAAA) (Aspergillus niger, UniProt A8DRH9); assay: bioconversion in engineered yeast, LC-MS/MS of L-galactonic acid; conditions: 90 μM D-GalA, pH 5.8, 30°C; endogenous NADPH; GAT-1 co-expressed; native yeast reductase background
T2 construct: codon-optimized gene, Cen6/leu2 vector with TDH3 promoter, expressed in S. cerevisiae with gat-1-GFP integrated
T2 sequence (A8DRH9 1-412): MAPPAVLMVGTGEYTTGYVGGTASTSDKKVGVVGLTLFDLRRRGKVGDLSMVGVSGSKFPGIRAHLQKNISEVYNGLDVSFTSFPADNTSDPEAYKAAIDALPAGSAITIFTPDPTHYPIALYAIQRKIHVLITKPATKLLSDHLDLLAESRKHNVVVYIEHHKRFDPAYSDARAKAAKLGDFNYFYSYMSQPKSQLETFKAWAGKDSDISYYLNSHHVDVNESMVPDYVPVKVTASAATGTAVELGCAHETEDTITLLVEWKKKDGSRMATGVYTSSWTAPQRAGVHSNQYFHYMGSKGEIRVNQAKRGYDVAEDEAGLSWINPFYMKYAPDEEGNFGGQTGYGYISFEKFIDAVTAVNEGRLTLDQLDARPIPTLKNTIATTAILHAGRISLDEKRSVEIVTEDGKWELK

[3] = molecular target: T3, uronate dehydrogenase (UDH) (Agrobacterium fabrum, UniProt Q7CRQ0); assay: bioconversion in engineered yeast, LC-MS/MS of meso-galactaric acid; conditions: 90 μM D-GalA, pH 5.8, 30°C; endogenous NAD+; GAT-1 co-expressed
T3 construct: open reading frame, Cen6/leu2 vector with TDH3 promoter, expressed in S. cerevisiae with gat-1-GFP integrated
T3 sequence (Q7CRQ0 1-265): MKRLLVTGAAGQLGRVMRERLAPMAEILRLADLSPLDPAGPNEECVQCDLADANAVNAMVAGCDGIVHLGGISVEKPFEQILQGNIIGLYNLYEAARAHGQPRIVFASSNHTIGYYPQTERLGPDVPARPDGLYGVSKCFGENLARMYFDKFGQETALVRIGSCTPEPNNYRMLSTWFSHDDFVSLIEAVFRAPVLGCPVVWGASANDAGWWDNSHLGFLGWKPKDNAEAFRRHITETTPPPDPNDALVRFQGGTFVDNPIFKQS

T1 sequence (P11636 whole entry): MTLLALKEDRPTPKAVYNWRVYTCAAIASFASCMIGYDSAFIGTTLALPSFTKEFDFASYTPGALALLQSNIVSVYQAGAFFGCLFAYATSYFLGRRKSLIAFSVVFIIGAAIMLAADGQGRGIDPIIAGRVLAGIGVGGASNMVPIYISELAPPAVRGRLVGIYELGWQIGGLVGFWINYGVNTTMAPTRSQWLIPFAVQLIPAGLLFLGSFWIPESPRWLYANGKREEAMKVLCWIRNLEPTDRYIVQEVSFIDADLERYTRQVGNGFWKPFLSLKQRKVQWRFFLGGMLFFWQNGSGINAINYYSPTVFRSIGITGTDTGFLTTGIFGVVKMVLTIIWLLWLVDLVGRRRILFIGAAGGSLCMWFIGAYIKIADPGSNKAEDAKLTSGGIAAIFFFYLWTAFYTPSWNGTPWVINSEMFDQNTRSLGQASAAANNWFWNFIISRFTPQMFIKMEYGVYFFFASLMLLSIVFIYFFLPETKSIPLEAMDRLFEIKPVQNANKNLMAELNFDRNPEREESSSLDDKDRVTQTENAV

| Structure (SMILES) | uptake by induced mycelia, WT versus deletion strain, MS detection [1] | bioconversion in engineered yeast, LC-MS/MS of L-galactonic acid [2] | bioconversion in engineered yeast, LC-MS/MS of meso-galactaric acid [3] |
| --- | --- | --- | --- |
| O=C(O)[C@]1(O)C[C@@H](O)[C@@H](O)[C@H](O)C1 [quinic acid] | almost completely unable to take up qa, indicating that it is the only physiologically relevant transporter |  |  |
| O=C(O)[C@H]1OC(O)[C@H](O)[C@@H](O)[C@H]1O (stereo partly drawn) [D-GalA] |  | expression of the reductase resulted in a higher product yield (GAAA/GAT-1) | GalAA production was enzyme (UDH)dependent |
